Assay results from patent US10214514B2, “Hedgehog antagonists having zinc binding moieties” (Curis, Inc., priority 2011, dated 2019).
Where “and” joins values, the source holds several entries; their conditions need not be identical. Identical values can stand only once.

What was measured:
[1] = system: HDACs (HeLa cell nuclear extracts); assay: HDAC enzymatic activity inhibition assay (Biomol Color de Lys system); type: biochemical; conditions: class symbols
Method: HDAC inhibitory activity was assessed using the Biomol Color de Lys system (AK-500, Biomol, Plymouth Meeting, Pa.). Briefly, HeLa cell nuclear extracts were used as a source of HDACs. Different concentrations of test compounds were serially diluted in dimethylsulfoxide (DMSO) and added to HeLa cell nuclear extracts in the presence of a colorimetric artificial substrate. […] Reactions were carried out at room temperature (25° C.) for 1 hour before addition of developer for termination. […] Data were analyzed using GraphPad Prism (v4.0a) with a sigmoidal dose response curve fitting for IC50 calculation.

[2] = system: Hedgehog pathway signaling (Gli-Luc response, OCT-SHH activated 10 Tl/2 (s12) cells); assay: Hedgehog signalling inhibition, Gli-Luc reporter assay (Hh Reporter assay); type: cell-based
Method: Example 17: An In Vitro Assay which Determines the Ability of a Test Compound to Inhibit Hedgehog Signalling
Compounds to be tested were dissolved in DMSO to a concentration of 10 mM, and stored at −20° C. To activate the Hedgehog pathway in the assay cells, an octylated (lipid-modified) form of the N-terminal fragment of the Sonic Hedgehog protein (OCT-SHH) was used. This N-terminal SHH fragment is produced bacterially. See, for example, Taylor F R, et al., Biochemistry, 2001, 40: 4359-71.
Compounds were tested in the“Gli-Luc” assay below, using the cell line 10 Tl/2 (s12), wherein the cells contain a Hedgehog-responsive reporter construct utilizing Luciferase as the reporter gene. In this way, Hedgehog pathway signaling activity is measured via the Gli-Luc response.
10 Tl/2 (s12) cells were plated in a 96-well micro-titer plate (MTP) at 20,000 cells/well in full medium [DMEM with 10% FBS]. Then plates were placed in the incubator for incubation overnight (0/N), at 37° C. and 5% CO2. After 24 h, the medium was replaced with Luciferase-assay medium (DMEM with 0.5% FBS). Test compounds were thawed and diluted in assay medium at 3:1000 (about 300-fold) resulting in a starting concentration of about 0.0003 uM to 30 uM. Subsequently, 150 ul of each sample was added to the first wells (in triplicate). The MTP samples were then diluted at 3-fold dilutions to a total of seven wells, ultimately resulting in a regiment of seven dilutions in triplicate, for each compound. Next, the protein ligand OCT-SHH was diluted in Luciferase-assay medium and added to each well at a final concentration of 0.3 μg/ml. Plates were then returned to the incubator for further incubation O/N, at 37° C. and 5% CO2. After about 24 h, plates were removed from the incubator and the medium was aspirated/discarded.
Wells were washed once with assay buffer [PBS+1 mM Mg^2+ and 1 mM Ca^2+]. Then 50 μl of assay buffer was added to each well. The Luciferase assay reagent was prepared as described by the vendor (LucLite kit from Packard), and 50 μl was added to each well. Plates were incubated at room temperature (RT) for about 30 minutes after which the signals were read, again at RT, on a Topcount (Packard). […]

[3] = S12, Gli-Luc reporter, class symbols

| Structure (SMILES) | IC50 [1] | IC50 [2, 3] | melting point | IC50 ([2]; Gli-Luc reporter, numeric values for reference compounds) | IC50 ([2]; S12, Gli-Luc reporter, numeric values for reference compounds) |
| --- | --- | --- | --- | --- | --- |
| O=C(CCCCCCNS(=O)(=O)c1ccc(C(=O)Nc2ccc(Cl)c(-c3ccccn3)c2)c(Cl)c1)NO [Compound 59, 2-Chloro-N-(4-chloro-3-(pyridin-2-yl)phenyl)-4-(N-(7-(hydroxyamino)-7-oxoheptyl)sulfamoyl)benzamide] | 100 to 1000 nM | 10 to 100 nM | – | – | – |
| CN(C)c1ccc2[nH]c(-c3cc(NC(=O)c4cccc(OCCCCCCC(=O)NO)c4)ccc3Cl)nc2c1 [Compound 111, N-(4-Chloro-3-(5-(dimethylamino)-1H-benzo[d]imidazol-2-yl)phenyl)-3-(7-(hydroxyamino)-7-oxoheptyloxy)benzamide] | 10 to 100 nM | 100 to 1000 nM | – | – | – |
| CS(=O)(=O)c1ccc(C(=O)Nc2ccc(Cl)c(-c3ncc(C(=O)NO)cn3)c2)c(Cl)c1 [Compound 7, 2-[2-Chloro-5-(2-chloro-4-methanesulfonyl-benzoylamino)-phenyl]-pyrimidine-5-carboxylic acid hydroxyamide] | 100 to 1000 nM | > 1000 nM | – | – | – |
| O=C(NO)c1cnc(NS(=O)(=O)c2ccc(C(=O)Nc3ccc(Cl)c(-c4ccccn4)c3)c(Cl)c2)nc1 [Compound 265, 2-(3-Chloro-4-(4-chloro-3-(pyridin-2-yl)phenylcarbamoyl)phenylsulfonamido)-N-hydroxypyrimidine-5-carboxamide] | > 1000 nM | – | – | – | – |
| O=C(/C=C/c1cccc(NS(=O)(=O)c2ccc(C(=O)Nc3ccc(Cl)c(-c4ccccn4)c3)c(Cl)c2)c1)NO [Compound 254, (E)-2-Chloro-N-(4-chloro-3-(pyridin-2-yl)phenyl)-4-(N-(3-(3-(hydroxyamino)-3-oxoprop-1-enyl)phenyl)sulfamoyl)benzamide] | 100 to 1000 nM | 10 to 100 nM | – | – | – |
| COc1cc(CNc2ncc(C(=O)NO)cn2)cc(C(=O)Nc2ccc(Cl)c(-c3nc4cc(N(C)C)ccc4[nH]3)c2)c1 [Compound 258, 2-(3-(4-Chloro-3-(5-(dimethylamino)-1H-benzo[d]imidazol-2-yl)phenylcarbamoyl)-5-methoxybenzylamino)-N-hydroxypyrimidine-5-carboxamide] | 10 to 100 nM | 10 to 100 nM | 158 to 159 °C | – | – |
| COc1cc(CN(C)c2ncc(C(=O)NO)cn2)cc(C(=O)Nc2ccc(Cl)c(-c3nc4cc(N(C)C)ccc4[nH]3)c2)c1 [Compound 259, 2-((3-(4-Chloro-3-(5-(dimethylamino)-1H-benzo[d]imidazol-2-yl)phenylcarbamoyl)-5-methoxybenzyl)(methyl)amino)-N-hydroxypyrimidine-5-carboxamide] | 10 to 100 nM | 10 to 100 nM | – | – | – |
| CS(=O)(=O)c1ccc(C(=O)Nc2ccc(Cl)c(-c3ccc(C(=O)NO)cn3)c2)c(Cl)c1 [Compound 5, 6-(2-Chloro-5-(2-chloro-4-(methylsulfonyl)benzamido)phenyl)-N-hydroxynicotinamide] | 100 to 1000 nM | 100 to 1000 nM | – | – | – |
| Cc1nc(NCC2CCN(c3ncc(C(=O)NO)cn3)CC2)ccc1C(=O)Nc1ccc(Cl)c(-c2nc3ccccc3[nH]2)c1 [Compound 91, 2-(4-((5-(3-(1H-Benzo[d]imidazol-2-yl)-4-chlorophenylcarbamoyl)-6-methylpyridin-2-ylamino)methyl)piperidin-1-yl)-N-hydroxypyrimidine-5-carboxamide] | 10 to 100 nM | 10 to 100 nM | 194 to 196 °C | – | – |
| CN(Cc1ccc(C(=O)Nc2ccc(Cl)c(-c3ccccn3)c2)c(Cl)c1)c1ncc(C(=O)NO)cn1 [Compound 263, 2-((3-Chloro-4-(4-chloro-3-(pyridin-2-yl)phenylcarbamoyl)benzyl) (methyl)amino)-N-hydroxypyrimidine-5-carboxamide] | 10 to 100 nM | 100 to 1000 nM | – | – | – |
| CS(=O)(=O)c1ccc(C(=O)Nc2ccc(Cl)c(-c3ccc(OCCCCCCC(=O)NO)cn3)c2)c(Cl)c1 [Compound 23, 2-Chloro-N-{4-chloro-3-[5-(6-hydroxycarbamoyl-hexyloxy)-pyridin-2-yl]-phenyl}-4-methanesulfonyl-benzamide] | 10 to 100 nM | 100 to 1000 nM | 140 to 145 °C | – | – |
| CS(=O)(=O)c1ccc(C(=O)Nc2ccc(Cl)c(-c3ccc(/C=C/C(=O)NO)cn3)c2)c(Cl)c1 [Compound 1, (E)-2-chloro-N-(4-chloro-3-(5-(3-(hydroxyamino)-3-oxoprop-1-enyl)pyridin-2-yl)phenyl)-4-(methylsulfonyl)benzamide] | 100 to 1000 nM | 100 to 1000 nM | – | – | – |
| O=C(NO)c1ccc(OCCNS(=O)(=O)c2ccc(C(=O)Nc3ccc(Cl)c(-c4ccccn4)c3)c(Cl)c2)cc1 [Compound 266, 2-Chloro-N-(4-chloro-3-(pyridin-2-yl)phenyl)-4-(N-(2-(4-(hydroxycarbamoyl)phenoxy)ethyl)sulfamoyl)benzamide] | 100 to 1000 nM | 1 to 10 nM | 138 to 139 °C | – | – |
| COc1cc(OC)cc(C(=O)Nc2ccc(Cl)c(-c3nc4ccc(N(C)C)cc4[nH]3)c2)c1 [Compound A, reference compound] | – | – | – | 24 nM and 13.1 nM | 17 nM |
| O=C(NO)c1cnc(N2CCC(CNS(=O)(=O)c3ccc(C(=O)Nc4ccc(Cl)c(-c5ccccn5)c4)c(Cl)c3)CC2)nc1 [Compound 90, 2-(4-((3-Chloro-4-(4-chloro-3-(pyridin-2-yl)phenylcarbamoyl)phenylsulfonamido)methyl)piperidin-1-yl)-N-hydroxypyrimidine-5-carboxamide] | 10 to 100 nM | 1 to 10 nM | 172 to 173 °C | – | – |
